In US6384061B1, “Hydantoin compounds and methods related thereto” (LG Chemical Ltd., priority 2000, dated 2002):
pIC50: −log10 of the molar value.

Legend:
[1] = test system: intracellular Ras farnesyl transferase, Rat2 cell line; test: Intracellular Ras farnesyl transferase inhibiting activity in transformed Rat2 cells (35S-methionine labelling, Y13-259 immunoprecipitation, SDS-PAGE); format: cell-based; conditions: Rattus norvegicus; transformed Rat2 fibroblast cell line; concentration inhibiting 50% of farnesyl binding of Ras protein; read-out: Ftase CIC50
Protocol: In the present experiment, Rat2 cell line which expresses C-Harvey-Ras protein having transforming activity and Rat2 cell line(Korean patent application No. 97-14409) which is transformed with fused protein of H-Ras substituted with polybasic lysine domain at C-terminus of K-Ras were used. The experiment was performed by the modified Declue's method(Declue. J. E. et al., Cancer Research, 1991. 51, 712). Hereinafter, the experimental method will be described in more detail.
3×10^5 cells of transformed Rat2 fibroblast cell line were sprayed on 60 mm cell cultivation dish and cultivated for 48 hours in a cell incubator at 37° C. and after 50% or more of density was reached, it was treated with a reagent. The compound according to the present invention dissolved in dimethylsulfoxide(DMSO) was used as the reagent. 1% of dimethylsulfoxide was used in both control and experimental groups. After 4 hours from the treatment of the reagent, methionine labeled with 150 μCi of radioactive isotope, ^35S per 1 ml of medium, was added and after cultivating for 20 hours, the cells were washed with physiological saline water. The cells were lysed using 1 ml of cool cell lysis buffer solution(50 mM of Sodium Herpiss buffer solution containing 5 mmol of magnesium chloride. 1 mmol of DTT, 1% NP 40, 1 mmol of EDTA, 1 mmol of PMSF, 2 μmol of leupeptin, 2 μmol of pepstatin A and 2 μmol of antipain) and the supernatant was obtained by high-velocity centrifugation of 12,000 g×5 minutes. The amount of the labeled radioisotope of the supernatent was measured and standardized to obtain a quantitative result in immunoprecipitation reaction and then. Y13-259, monoclonal antiboby specifically binding to Ras protein(Furth, M. E. et al., J. Virol, 1982, 43, 294) was added and reacted for 15 hours at 4° C. Protein A bound to goat anti-murine Immunoglobulin antibody-agarose suspension was added to the solution and reacted for 1 hour at 4° C. and then, to remove unspecific binding product, immunoprecipitates were washed with buffer solution(50 mM Tris chloride buffer solution containing 50 mmol of sodium chloride, 0.5% of sodium dioxycolate, 0.5% of NP 40 and 0.1% of SDS). The precipitates were boiled in reagent buffer solution for electrophoresis and then, electrophoresis was performed using 13.5% of SDS polyacrylamide gel. After electrophoresis, the gel was fixed and dried. Then, the gel was exposed to X-ray film, developed and printed. From the result of the experiment, intensities of band of protein with and without farnesyl of Ras protein were measured, and the concentration of reagent inhibiting 50% of farnesyl binding was defined as CIC50, an intracellular Ras farnesyl transferase inhibiting activity.

[2] = biological target: T1, Ras farnesyl transferase (Homo sapiens, UniProt P49354+P49356); test: Ras farnesyl transferase inhibiting activity (filter-binding, tritium-farnesylpyrophosphate, Ras-CVLS substrate); format: biochemical; conditions: recombinant Ras farnesyl transferase, 30 minutes at 37° C., read-out: Ftase IC50
T1 construct: made in house
Protocol: The enzyme reaction was performed in 50 μl of 50 mM Sodium HEPES buffer solution containing 25 mmol of potassium chloride. 25 mmol of magnesium chloride, 10 mmol of DTT and 50 μmol of zinc chloride. 1.5 μmol of Ras substrate protein, 0.15 μmol of tritium-farnesylpyrophosphate and 4.5 nmol of farnesyl transferase were used.
More specifically, in the initial step, farnesyl transferase was added to the above buffer solution, reaction was maintained for 30 minutes at 37° C. and then the reaction was stopped by adding 1 ml of ethanol solution containing 1M HCl. The formed precipitates were adsorbed to GF/B filter using Hopper harvestor(Hopper #225V) for filter-binding, washed with ethanol, and then radioactivity of the dried filter was measured using LKB β counter. Enzyme titer was measured in the unsaturated state of substrate where the concentrations of Ras substrate protein and farnesyl transferase have quantitative relationship. Enzyme inhibiting activity was measured using less than 5% of total reaction solution of the compound according to the present invention dissolved in dimethylsulfoxide(DMSO) solution as a reagent. Enzyme inhibiting activity was represented by percentage of the amount of the farnesyl incorporated with the reagent to that without the reagent.

[3] = biological target: T2, Geranylgeranyl transferase (Bos taurus, UniProt P29702+Q5EAD5); test: Geranylgeranyl transferase inhibiting activity (geranylgeranyl pyrophosphate, Ras-CVIL substrate); format: biochemical; conditions: geranylgeranyl transferase purified from bovine brain, read-out: GGtase IC50
T2 construct: Geranylgeranyl transferase was purified from bovine brain; from tissue; host or cells: bovine brain
Protocol: To evaluate the selective enzyme inhibiting activity of the compound according to the present invention, inhibiting activity on geranylgeranyl transferase was measured. Geranylgeranyl transferase was purified from bovine brain with the method modified from Schber's method(Schber et al., J. Biol. Chem. 1990, 265, 14701). and substantially the same experiment as that of farnesyl transferase was performed using geranylgeranyl pyrophosphate and Ras-CVIL substrate protein under the similar condition to farnesyl transferase reaction.

pIC50 [2] | pIC50 [3] | Structure (SMILES) | pIC50 [1]
7.04 | < 5.00 | CC1(c2cccc3ccccc23)C(=O)N(CCCn2ccnc2)C(=O)N1Cc1cccc(C#N)c1 (stereo not drawn) [Compound 32, 3-[3-(3-imidazol-1-yl-propyl)-5-methyl-5naphthalen-1-yl-2,4-dioxo-imidazolidin-1-ylmethyl]-benzonitrile] | > 4.70
7.85 | < 5.00 | CSCCC(NC(=O)CN1C(=O)N(CCCc2cncn2Cc2ccc(C#N)cc2)C(=O)C1(C)c1cccc2ccccc12)C(=O)O (stereo not drawn) [Compound 58, 2-[2-(3-{3-[3-(4-cyanobenzyl)-3H-imidazol-4-yl]-propyl}-5-methyl-5-naphthalen-1-yl-2,4-dioxo-imidazolidin-1-yl)-acetylamino]-4-methylsulfanyl-butyric acid] | > 4.70
7.30 | < 5.00 | CC1(c2cccc3ccccc23)C(=O)N(Cc2cncn2Cc2ccc(C#N)cc2)C(=O)N1Cc1cccc(C#N)c1 (stereo not drawn) [Compound 63] | > 4.70
7.00 | < 5.00 | N#Cc1ccc(Cn2cncc2CN2C(=O)C(CC(=O)O)N(Cc3cccc4ccccc34)C2=O)cc1 (stereo not drawn) [Compound 78, {1-[3-(4-cyano-benzyl)-3H-imidazol-4-ylmethyl]-3-naphthalen-1-ylmethyl-2,5-dioxo-imidazolidin-4-yl}-acetic acid] | > 4.70
5.26 | < 5.00 | CC1(c2cccc3ccccc23)NC(=O)N(CCCc2cncn2Cc2ccc(C#N)cc2)C1=O (stereo not drawn) [Compound 45, 4-{5-[3-(4-methyl-4-naphthalen-1-yl-2,5-dioxo-imidazolidin-1-yl)-propyl]-imidazol-1-ylmethyl}benzonitrile] | > 4.70
7.10 | < 5.00 | CC1(c2cccc3ccccc23)C(=O)N(CCCc2cncn2Cc2ccc(C#N)cc2)C(=O)N1C(=O)c1ccco1 (stereo not drawn) [Compound 56, 4-(5-{3-[3-(furan-2-carbonyl)-4-methyl-4-naphthalen-1-yl-2,5-dioxo-imidazolidin-1-yl]-propyl}-imidazol-1-ylmethyl)-benzonitrile] | > 4.70
7.74 | < 5.00 | CCN1C(=O)N(CCCc2cncn2Cc2ccc(C#N)cc2)C(=O)C1(C)c1cccc2ccccc12 (stereo not drawn) [Compound 47, 4-{5-[3-(3-ethyl-4-methyl-4-naphthalen-1-yl-2,5-dioxo-imidazolidin-1-yl)-propyl]-imidazol-1-ylmethyl}benzonitrile] | > 4.70

Second part, the compound before the results:

Structure (SMILES) | pIC50 [2] | pIC50 [3] | pIC50 [1]
COCCN(C)C(=O)CC1C(=O)N(Cc2cncn2Cc2ccc(Br)cc2)C(=O)N1Cc1cccc2ccccc12 (stereo not drawn) [Compound 83, 2-{1-[3-(4-bromo-benzyl)-3H-imidazol-4-ylmethyl]-3-naphthalen-1-ylmethyl-2,5dioxo-imidazolidin-4-yl}-N-(2-methoxy-ethyl)-N-methyl-acetamide] | 5.82 | < 5.00 | < 4.30
COCCN(C)C(=O)c1ccc(CN2C(=O)N(CCCn3ccnc3)C(=O)C2(C)c2cccc3ccccc23)cc1 (stereo not drawn) [Compound 42, 4[3-(3-imidazol-1-yl-propyl)-5-methyl-5-naphthalen-1-yl-2,4-dioxo-imidazolidin-1-ylmethyl]-N-(2-methoxy-ethyl)-N-methyl-benzamide] | 6.00 | < 5.00 | > 4.70
CC1(c2cccc3ccccc23)C(=O)N(CCCn2ccnc2)C(=O)N1Cc1cccc(Cl)c1 (stereo not drawn) [Compound 19, 1-(3-chloro-benzyl)-3-(3-imidazol-1-yl-propyl)-5-methyl-5-naphthalen-1-yl-imidazolidin-2,4-dione] | 6.62 | < 5.00 | > 4.70
CC1(c2cccc3ccccc23)C(=O)N(CCCn2ccnc2)C(=O)N1Cc1ccccc1C#N (stereo not drawn) [Compound 31, 2-[3-(3-imidazol-1-yl-propyl)-5-methyl-5-naphthalen-1-yl-2,4-dioxo-imidazolidin-1-ylmethyl]-benzonitrile] | 6.05 | < 5.00 | > 4.70
CSc1ccc(CN2C(=O)N(CCCn3ccnc3)C(=O)C2(C)c2cccc3ccccc23)cc1 (stereo not drawn) [Compound 26, 3-(3-imidazol-1-yl-propyl)-1-(4-methylsulfanyl-benzyl)-5-methyl-5-naphthalen-1-yl-imidazolidin-2,4-dione] | 6.15 | < 5.00 | > 4.70
CC1(c2cccc3ccccc23)C(=O)N(CCCn2ccnc2)C(=O)N1Cc1ccccc1CNS(C)(=O)=O (stereo not drawn) [Compound 35, N-{2-[3-(3-imidazol-1-yl-propyl)-5-methyl-5-naphthalen-1-yl-2,4-dioxo-imidazolidin-1-ylmethyl]-benzyl}-methanesulfonamide] | 6.30 | < 5.00 | > 4.70
CC1(c2ccccc2)C(=O)N(CCCn2ccnc2)C(=O)N1Cc1cccc(C#N)c1 (stereo not drawn) [Compound 71, 3-[3-(3-imidazol-1-yl-propyl)-5-methyl-5-phenyl-2,4-dioxo-imidazolidin-1-ylmethyl]-benzonitrile] | 5.15 | < 5.00 | > 4.70
CSCCC(NC(=O)CN1C(=O)N(CCn2ccnc2)C(=O)C1(C)c1cccc2ccccc12)C(=O)O (stereo not drawn) [Compound 15, 2-{2-[3-(2-imidazol-1-yl-ethyl)-5-methyl-5-naphthalen-1-yl-2,4-dioxo-imidazolidin-1-yl]-acetylamino}-4-methylsulfanyl-butyric acid] | 8.70 | < 5.00 | > 4.70
CC1(c2cccc3ccccc23)C(=O)N(CCCn2ccnc2)C(=O)N1C(=O)N1CCOCC1 (stereo not drawn) [Compound 65, 3-(3-imidazol-1-yl-propyl)-5methyl-1-(morpholine-4-carbonyl)-5-naphthalen-1-yl-imidazolidin-2,4-dione] | 5.35 | < 5.00 | > 4.70
CC1(c2cccc3ccccc23)C(=O)N(CCCn2ccnc2)C(=O)N1Cc1ccc(S(C)(=O)=O)c(C#N)c1 (stereo not drawn) [Compound 30, 5-[3-(3-imidazol-1-yl-propyl)-5-methyl-5-naphthalen-1-yl-2,4-dioxo-imidazolidin-1-ylmethyl]-2-methylsulfonyl-benzonitrile] | 6.14 | < 5.00 | > 4.70
CCOC(=O)CC1C(=O)N(Cc2cncn2Cc2ccc(C#N)cc2)C(=O)N1Cc1cccc2ccccc12 (stereo not drawn) [Compound 77, {1-[3-(4-cyano-benzyl)-3H-imidazol-4-ylmethyl]-3-naphthalen-1-ylmethyl-2,5-dioxo-imidazolidin-4-yl}-acetic acid ethyl ester] | 7.30 | < 5.00 | > 5.00
CC1(c2cccc3ccccc23)C(=O)N(CCCn2ccnc2)C(=O)N1Cc1ccc(C(=O)O)cc1 (stereo not drawn) [Compound 39, 4-[3-(3-imidazol-1-yl-propyl)-5-methyl-5-naphthalen-1-yl-2,4-dioxo-imidazolidin-1-ylmethyl]-benzoic acid] | 6.70 | < 5.00 | > 4.70
